Results: patent US10435405B2, “Pyrazolopyridine compounds and uses thereof” (Incyte Corporation, priority 2016, dated 2019)

molecular target: HPK1 (Homo sapiens (Human), UniProt Q92918); assay: HPK1 Kinase Binding Assay
Summary of the method: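 This is a LanthaScreen tracer-binding format: a tracer 222/Eu-anti-GST antibody mix (18 nM and 4 nM solution) is added to active HPK1 (4 nM solution) with 3-fold, 11-point compound dilutions. Incubation is 1 h at 25 °C in HEPES pH 7.5 buffer before reading, and Ki is determined.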

Chain of HPK1 (Q92918 1-346): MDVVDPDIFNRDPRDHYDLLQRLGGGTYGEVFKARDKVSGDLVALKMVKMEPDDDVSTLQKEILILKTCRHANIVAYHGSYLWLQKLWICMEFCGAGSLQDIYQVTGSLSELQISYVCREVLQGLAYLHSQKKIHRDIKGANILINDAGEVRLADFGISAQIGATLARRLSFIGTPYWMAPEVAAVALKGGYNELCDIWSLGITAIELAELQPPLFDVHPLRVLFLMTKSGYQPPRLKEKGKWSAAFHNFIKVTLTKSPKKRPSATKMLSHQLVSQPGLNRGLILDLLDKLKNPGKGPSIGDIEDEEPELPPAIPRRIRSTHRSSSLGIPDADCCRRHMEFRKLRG

| SMILES | Ki [nM] |
| --- | --- |
| CN1CCN(c2ccc(-c3n[nH]c4cnc(-c5c(Cl)cccc5C(F)(F)F)cc34)cc2)CC1 [Example 50, 5-(2-Chloro-6-(trifluoromethyl)phenyl)-3-(4-(4-methylpiperazin-1-yl)phenyl)-1H-pyrazolo[3,4-c]pyridine] | ≤ 100 |
| Cc1cc(C2CCCCN2)cc(F)c1-c1cc2c(-c3cnn(C)c3)n[nH]c2cn1 (single isomer, unassigned) [Example 174, 5-(2-Fluoro-6-methyl-4-(piperidin-2-yl)phenyl)-3-(1-methyl-1H-pyrazol-4-yl)-1H-pyrazolo[3,4-c]pyridine] | ≤ 100 |
| CN1CCN(c2ccc(-c3n[nH]c4cnc(-c5c(F)cccc5CN)cc34)cc2)CC1 [Example 195, (3-Fluoro-2-(3-(4-(4-methylpiperazin-1-yl)phenyl)-1H-pyrazolo[3,4-c]pyridin-5-yl)phenyl)methanamine] | ≤ 100 |
| CC(C)NCc1cc(F)c(-c2cc3c(NC(=O)c4cccc(N5CCN(C)CC5)c4F)n[nH]c3cn2)c(F)c1 [Example 150, N-(5-(2,6-Difluoro-4-((isopropylamino)methyl)phenyl)-1H-pyrazolo[3,4-c]pyridin-3-yl)-2-fluoro-3-(4-methylpiperazin-1-yl)benzamide] | ≤ 100 |
| CNCc1cc(F)c(-c2cc3c(-c4ccc(C5CC5)nc4)n[nH]c3cn2)c(C(F)(F)F)c1 [Example 120, 1-(4-(3-(6-Cyclopropylpyridin-3-yl)-1H-pyrazolo[3,4-c]pyridin-5-yl)-3-fluoro-5-(trifluoromethyl)phenyl)-N-methylmethanamine] | ≤ 100 |
| CCN1CCN(c2ccc(NC(=O)c3n[nH]c4cnc(-c5c(F)cccc5OC)cc34)cc2)CC1 [Example 56, N-(4-(4-Ethylpiperazin-1-yl)phenyl)-5-(2-fluoro-6-methoxyphenyl)-1H-pyrazolo[3,4-c]pyridine-3-carboxamide] | ≤ 100 |
| CN1CCN(c2ccc(-c3n[nH]c4cnc(-c5c(F)cc(O)cc5F)cc34)cc2)CC1 [Example 48, 3,5-Difluoro-4-(3-(4-(4-methylpiperazin-1-yl)phenyl)-1H-pyrazolo[3,4-c]pyridin-5-yl)phenol] | ≤ 100 |
| CNC1CCc2c1cc(F)c(-c1cc3c(-c4ccc(N5CCN(C)CC5)cc4)n[nH]c3cn1)c2F (stereo not drawn) [Example 197, 4,6-Difluoro-N-methyl-5-(3-(4-(4-methylpiperazin-1-yl)phenyl)-1H-pyrazolo[3,4-c]pyridin-5-yl)-2,3-dihydro-1H-inden-1-amine] | ≤ 100 |
| CNCc1cc(F)c(-c2cc3c(NC(=O)c4cccc(N5CCN(C)CC5)c4)n[nH]c3cn2)c(F)c1 [Example 145, N-(5-(2,6-Difluoro-4-((methylamino)methyl)phenyl)-1H-pyrazolo[3,4-c]pyridin-3-yl)-3-(4-methylpiperazin-1-yl)benzamide] | ≤ 100 |
| Cn1cc(-c2n[nH]c3cnc(-c4c(F)cc5c(c4F)C(N)CC5)c(F)c23)cn1 (stereo not drawn) [Example 216, 5,7-Difluoro-6-(4-fluoro-3-(1-methyl-1H-pyrazol-4-yl)-1H-pyrazolo[3,4-c]pyridin-5-yl)-2,3-dihydro-1H-inden-1-amine] | ≤ 100 |
| COC(=O)N1CCN(c2ccc(C(=O)Nc3n[nH]c4cnc(-c5c(F)cc(CNC(C)C)cc5F)cc34)c(F)c2)CC1 [Example 148, Methyl 4-(4-(5-(2,6-difluoro-4-((isopropylamino)methyl)phenyl)-1H-pyrazolo[3,4-c]pyridin-3-ylcarbamoyl)-3-fluorophenyl)piperazine-1-carboxylate] | ≤ 100 |
| CNC(=O)c1ccc(-c2n[nH]c3cnc(-c4c(F)cccc4OC)cc23)cn1 [Example 101, 5-(5-(2-Fluoro-6-methoxyphenyl)-1H-pyrazolo[3,4-c]pyridin-3-yl)-N-methylpicolinamide] | ≤ 100 |
| COc1cccc(F)c1-c1cc2c(NC(=O)c3ccc(N4CCN(S(C)(=O)=O)CC4)cc3)n[nH]c2cn1 [Example 32, N-(5-(2-Fluoro-6-methoxyphenyl)-1H-pyrazolo[3,4-c]pyridin-3-yl)-4-(4-(methylsulfonyl)piperazin-1-yl)benzamide] | ≤ 100 |
| COc1cccc(F)c1-c1cc2c(NC(=O)c3cnn(C)c3)n[nH]c2cn1 [Example 14, N-(5-(2-Fluoro-6-methoxyphenyl)-1H-pyrazolo[3,4-c]pyridin-3-yl)-1-methyl-1H-pyrazole-4-carboxamide] | ≤ 100 |
| Cc1cc(NC(=O)CN2C[C@H]3CC[C@@H]2C3)cc(F)c1-c1cc2c(-c3cnn(C)c3)n[nH]c2cn1 [Example 83, 2-((1R,4S)-2-Azabicyclo[2.2.1]heptan-2-yl)-N-(3-fluoro-5-methyl-4-(3-(1-methyl-1H-pyrazol-4-yl)-1H-pyrazolo[3,4-c]pyridin-5-yl)phenyl)acetamide] | ≤ 100 |
| CNCc1cc(C)c(-c2cc3c(-c4ccc(N5CCCC(OC)C5)nc4)n[nH]c3cn2)c(F)c1 (stereo not drawn) [Example 114, 1-(3-Fluoro-4-(3-(6-(3-methoxypiperidin-1-yl)pyridin-3-yl)-1H-pyrazolo[3,4-c]pyridin-5-yl)-5-methylphenyl)-N-methylmethanamine] | ≤ 100 |
| Cc1c(CN2CC(C)(C)C2)ccc(F)c1-c1cc2c(-c3cnn(C)c3)n[nH]c2cn1 [Example 221, 5-(3-((3,3-Dimethylazetidin-1-yl)methyl)-6-fluoro-2-methylphenyl)-3-(1-methyl-1H-pyrazol-4-yl)-1H-pyrazolo[3,4-c]pyridine] | ≤ 100 |
| COc1cccc(F)c1-c1cc2c(NC(=O)c3cccc(N4CCOCC4)c3)n[nH]c2cn1 [Example 16, N-(5-(2-Fluoro-6-methoxyphenyl)-1H-pyrazolo[3,4-c]pyridin-3-yl)-3-morpholinobenzamide] | ≤ 100 |
| CNC(=O)c1ccc(-c2n[nH]c3cnc(-c4c(C)cc(C5CCCN5)cc4F)cc23)cc1 (stereo not drawn) [Example 170, 4-(5-(2-Fluoro-6-methyl-4-(pyrrolidin-2-yl)phenyl)-1H-pyrazolo[3,4-c]pyridin-3-yl)-N-methylbenzamide] | ≤ 100 |
| COc1cccc(F)c1-c1cc2c(C(=O)Nc3ccc(N4CCN(C)CC4)cc3)n[nH]c2cn1 [Example 54, 5-(2-Fluoro-6-methoxyphenyl)-N-(4-(4-methylpiperazin-1-yl)phenyl)-1H-pyrazolo[3,4-c]pyridine-3-carboxamide] | ≤ 100 |
| Cc1cccc(F)c1-c1cc2c(NC(=O)c3ccc(N4CCN(C)CC4)cc3NCc3ccnn3C)n[nH]c2cn1 [Example 159, N-(5-(2-Fluoro-6-methylphenyl)-1H-pyrazolo[3,4-c]pyridin-3-yl)-2-((1-methyl-1H-pyrazol-5-yl)methylamino)-4-(4-methylpiperazin-1-yl)benzamide] | ≤ 100 |
| COc1cccc(F)c1-c1cc2c(NC(=O)c3ccc4c(c3)OCO4)n[nH]c2cn1 [Example 13, N-(5-(2-Fluoro-6-methoxyphenyl)-1H-pyrazolo[3,4-c]pyridin-3-yl)benzo[d][1,3]dioxole-5-carboxamide] | ≤ 100 |

The remaining lines, values ahead:

| Ki [nM] | SMILES |
| --- | --- |
| ≤ 100 | CNCc1cc(F)c(-c2cc3c(-c4cnn(C5CNC5)c4)n[nH]c3cn2)c(F)c1 [Example 162, 1-(4-(3-(1-(Azetidin-3-yl)-1H-pyrazol-4-yl)-1H-pyrazolo[3,4-c]pyridin-5-yl)-3,5-difluorophenyl)-N-methylmethanamine] |
| ≤ 100 | Cc1cc(CNCC(F)(F)F)cc(F)c1-c1cc2c(-c3cnn(C)c3)n[nH]c2cn1 [Example 179, 2,2,2-Trifluoro-N-(3-fluoro-5-methyl-4-(3-(1-methyl-1H-pyrazol-4-yl)-1H-pyrazolo[3,4-c]pyridin-5-yl)benzyl)ethanamine] |
| ≤ 100 | CNCc1ccc(F)c(-c2cc3c(-c4cnn(C)c4)n[nH]c3cn2)c1C(F)(F)F [Example 225, 1-(4-Fluoro-3-(3-(1-methyl-1H-pyrazol-4-yl)-1H-pyrazolo[3,4-c]pyridin-5-yl)-2-(trifluoromethyl)phenyl)-N-methylmethanamine] |
| ≤ 100 | CC(C)NCc1ccc(F)c(-c2cc3c(-c4cnn(C)c4)n[nH]c3cn2)c1F [Example 128, N-(2,4-Difluoro-3-(3-(1-methyl-1H-pyrazol-4-yl)-1H-pyrazolo[3,4-c]pyridin-5-yl)benzyl)propan-2-amine] |
| ≤ 100 | COc1c(-c2cc3c(-c4cnn(C)c4)n[nH]c3cn2)c(F)cc2c1C(N)CC2 (stereo not drawn) [Example 207, 5-Fluoro-7-methoxy-6-(3-(1-methyl-1H-pyrazol-4-yl)-1H-pyrazolo[3,4-c]pyridin-5-yl)-2,3-dihydro-1H-inden-1-amine] |
| ≤ 100 | CNC1CCc2cc(F)c(-c3cc4c(-c5cnn(C)c5)n[nH]c4cn3)c(F)c2C1 (stereo not drawn) [Example 200, 6,8-Difluoro-N-methyl-7-(3-(1-methyl-1H-pyrazol-4-yl)-1H-pyrazolo[3,4-c]pyridin-5-yl)-1,2,3,4-tetrahydronaphthalen-2-amine] |
| ≤ 100 | Cn1cc(-c2n[nH]c3cnc(-c4c(F)cc(CNCCO)cc4F)cc23)cn1 [Example 126, 2-(3,5-Difluoro-4-(3-(1-methyl-1H-pyrazol-4-yl)-1H-pyrazolo[3,4-c]pyridin-5-yl)benzylamino)ethanol] |
| ≤ 100 | Cc1cc(NC(=O)CC#N)cc(F)c1-c1cc2c(-c3cnn(C)c3)n[nH]c2cn1 [Example 85, 2-Cyano-N-(3-fluoro-5-methyl-4-(3-(1-methyl-1H-pyrazol-4-yl)-1H-pyrazolo[3,4-c]pyridin-5-yl)phenyl)acetamide] |
| ≤ 100 | Cc1c(CNCC2(C)CC2)ccc(F)c1-c1cc2c(-c3cnn(C)c3)n[nH]c2cn1 [Example 224, N-(4-Fluoro-2-methyl-3-(3-(1-methyl-1H-pyrazol-4-yl)-1H-pyrazolo[3,4-c]pyridin-5-yl)benzyl)-1-(1-methylcyclopropyl)methanamine] |
| ≤ 100 | Cc1cc(CNCC(C)(C)O)cc(F)c1-c1cc2c(-c3cnn(C)c3)n[nH]c2cn1 [Example 184, 1-(3-Fluoro-5-methyl-4-(3-(1-methyl-1H-pyrazol-4-yl)-1H-pyrazolo[3,4-c]pyridin-5-yl)benzylamino)-2-methylpropan-2-ol] |
| ≤ 100 | Cc1c(CNC2CC(C)(C)C2)ccc(F)c1-c1cc2c(-c3cnn(C)c3)n[nH]c2cn1 [Example 223, N-(4-Fluoro-2-methyl-3-(3-(1-methyl-1H-pyrazol-4-yl)-1H-pyrazolo[3,4-c]pyridin-5-yl)benzyl)-3,3-dimethylcyclobutanamine] |
